In assay [1] the target is FGFR2 (Homo sapiens (Human), UniProt P21802). Description: Biochemical FGFR2 Caliper assay.
The test system of assay [2] is SNU-16. Kind of assay: Cell SNU-16 assay. The class given is cell-based.
Where [3] appears, read: Homo sapiens, SNU-16, SNU-16 cells.

Each structure is given as a SMILES string. Some results are limits rather than exact numbers.

FGFR2, sequence (P21802 22-821): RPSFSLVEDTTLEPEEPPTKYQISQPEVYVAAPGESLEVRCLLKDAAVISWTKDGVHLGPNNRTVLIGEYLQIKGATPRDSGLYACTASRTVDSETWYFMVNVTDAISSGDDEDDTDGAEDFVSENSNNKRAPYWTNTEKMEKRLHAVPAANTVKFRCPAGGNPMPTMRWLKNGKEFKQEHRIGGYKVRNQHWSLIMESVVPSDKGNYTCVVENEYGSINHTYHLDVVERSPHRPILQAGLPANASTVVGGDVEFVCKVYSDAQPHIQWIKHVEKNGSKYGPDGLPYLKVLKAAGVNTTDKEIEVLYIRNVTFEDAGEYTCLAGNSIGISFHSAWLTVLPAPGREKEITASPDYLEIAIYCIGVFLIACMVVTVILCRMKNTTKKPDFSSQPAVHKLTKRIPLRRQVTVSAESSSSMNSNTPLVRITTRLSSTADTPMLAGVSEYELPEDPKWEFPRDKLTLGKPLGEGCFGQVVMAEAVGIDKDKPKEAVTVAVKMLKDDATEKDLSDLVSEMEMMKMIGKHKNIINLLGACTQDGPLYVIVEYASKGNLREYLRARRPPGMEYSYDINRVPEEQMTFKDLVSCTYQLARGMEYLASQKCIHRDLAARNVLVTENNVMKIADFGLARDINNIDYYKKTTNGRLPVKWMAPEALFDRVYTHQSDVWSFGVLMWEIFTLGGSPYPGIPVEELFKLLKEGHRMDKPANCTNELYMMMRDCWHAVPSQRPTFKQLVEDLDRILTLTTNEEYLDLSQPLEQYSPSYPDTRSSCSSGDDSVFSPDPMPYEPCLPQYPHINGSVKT

One may read the IC50 as the midpoint of a concentration-inhibition curve. Turning to `C=C(C)C(=O)Nc1ccc(-c2c(-c3ccc(O)c(F)c3)c3c(N)ncnc3n2C)cc1` [Example 1437], the IC50 in assay [1] fell in the range of 250 to 1000 nM; in assay [2] (setting [3]) it was 1000 to 100000 nM.
Take `C=C(C)C(=O)Nc1ccc(-c2c(-c3ccc(C(=O)N4CCCCC4)cc3)c3c(N)ncnn3c2CO)cc1` [Example 846]: the IC50 in assay [1] is under 100 nM; in assay [2] (setting [3]) it was 1000 to 100000 nM.
For `C=CC(=O)N1CC[C@H](c2c(-c3ccc(Oc4cccc(C)n4)cc3)c3c(N)ncnc3n2C)[C@H]1C` (single isomer, unassigned) [Example 941], in that order: 250 to 1000 nM and 100 to 250 nM.
As to `Cc1ccnc(Oc2ccc(-c3c(C4=CCN(C(=O)[C@@H]5CO5)C4)n(C)c4ncnc(N)c34)cc2)n1` (single isomer, unassigned) [Example 909], the IC50 in assay [1] and in assay [2] (setting [3]) was 1000 to 100000 nM throughout.
On to `C=CC(=O)N1CCC(n2cc(-c3c(-c4ccc(C(=O)NC5CCOC5)cc4)c4c(N)ncnc4n3C)cn2)CC1` (centres unmarked) [Example 845], for which the IC50 in assay [1] and in assay [2] (setting [3]) was 250 to 1000 nM each time.
In the case of `C=C(C)C(=O)Nc1ccc(-c2c(C3=CC[C@@H](C(=O)N4CC[C@@H]5C[C@@H]54)CC3)c3c(N)ncnc3n2C)cc1` [Example 1037], the values for the IC50 in assay [1] and in assay [2] (setting [3]) were under 100 nM and 250 to 1000 nM, respectively.
The like results for `C#Cc1cc(C)c(-c2cn3ncnc(N)c3c2C2=CC[C@@H](C(=O)N3CCC[C@H]3C)CC2)cn1` [Example 1380] were, in that order, 250 to 1000 nM and 250 to 1000 nM.
For the compound `C#Cc1cc(C)c(-c2c(-c3cnn(C)c3)c3c(N)ncnc3n2C)cn1` [Example 1144], the results for the IC50 in assay [1] and in assay [2] (setting [3]) were 100 to 250 nM and at most 100 nM, respectively.
On to `Cc1ccnc(Oc2ccc(-c3c(-c4ccc(OC[C@@H]5CO5)cc4)n(C)c4ncnc(N)c34)cc2)n1` (single isomer, unassigned) [Example 918], for which the IC50 in assay [1] lay within 250 to 1000 nM; in assay [2] (setting [3]), 1000 to 100000 nM.
For `C=Cc1nc2ccc(-c3c(-c4ccc(C(=O)N5CCCC5)cc4)c4c(N)ncnc4n3C)cc2n1C` [Example 895], in that order: 1000 to 100000 nM and 1000 to 100000 nM.
Consider `C=CC(=O)N1CCC(n2cc(-c3c(-c4ccc(Oc5ccn(C)n5)cc4)c4c(N)ncnc4n3C)cn2)CC1` [Example 855], for which the values for the IC50 in assay [1] and in assay [2] (setting [3]) were 250 to 1000 nM and 1000 to 100000 nM, respectively.
For `C#Cc1cc(C)c(-c2c(-c3ccc(Oc4nccc(C)n4)c(Cl)c3)c3c(N)ncnc3n2C)cn1` [Example 1263], in that order: under 100 nM and at most 100 nM.
For `C=C1CCN(c2ccc(-c3c(C4=CC[C@H](C(=O)N5CCCC5)CC4)c4c(N)ncnc4n3C)cc2)C1=O` (single isomer, unassigned) [Example 1137], in that order: 250 to 1000 nM and 100 to 250 nM.
`C#Cc1cc(C)c(-c2c(-c3ccc(Oc4nccc(C)n4)c(F)c3)c3c(Cl)ncnc3n2C)c(F)n1` [Example 1417]: the IC50 is under 100 nM in assay [1] and at most 100 nM in assay [2] (SNU-16 cells).
`C=CC(=O)Nc1ccc(-c2c(-c3ccc4[nH]ccc4c3)c3c(N)ncnc3n2C)cc1` [Example 1148]: the results for the IC50 in assay [1] and in assay [2] (setting [3]) were under 100 nM and at most 100 nM, respectively.
For `C#Cc1cc(C)c(-c2c(-c3ccc(Oc4nccc(C)n4)c(F)c3)c3c(Cl)ncnc3n2C)c(F)n1` [Example 1416], the IC50 in assay [1] was under 100 nM; in assay [2] (SNU-16 cells) it was 100 to 250 nM.
Regarding `C=C(C)C(=O)Nc1ccc(-c2c(C3=CC[C@@H](C(=O)N4CCC[C@H]4COC)CC3)c3c(N)ncnc3n2C)cc1` (single isomer, unassigned) [Example 981], the IC50 in assay [1] and in assay [2] (setting [3]) was 250 to 1000 nM each time.
Take `C=C(C)C(=O)Nc1ccc(-c2c(C3=CC[C@@H](C(=O)NC4CCCC4)CC3)c3c(N)ncnc3n2C)cc1` (single isomer, unassigned) [Example 958]: the results for the IC50 in assay [1] and in assay [2] (setting [3]) were 250 to 1000 nM and at most 100 nM, respectively.
For `C=C(C)C(=O)Nc1cc(C)c(-c2c(-c3ccc(Oc4nccc(C)n4)cc3)c3c(N)ncnc3n2C)c(F)c1` [Example 1097], in that order: under 100 nM and at most 100 nM.
`C#Cc1ccc(-c2c(-c3ccc(Oc4nccc(C)n4)cc3)c3c(N)ncnc3n2C)c(C)n1` [Example 1085]: the IC50 in assay [1] and in assay [2] (setting [3]) was 1000 to 100000 nM in each case.
For `C=CC(=O)N1C[C@@H](O)[C@@H](c2c(-c3ccc(Oc4cccc(C)n4)cc3)c3c(N)ncnc3n2C)C1` [Example 807], the 50% inhibitory concentration (IC50) in assay [1] and in assay [2] (setting [3]) was 250 to 1000 nM in each case.
For `C=CC(=O)N1CC(F)C(c2c(-c3ccc(Oc4cccc(C)n4)cc3)c3c(N)ncnc3n2C)C1` (centres unmarked) [Example 813], the IC50 in assay [1] and in assay [2] (setting [3]) was 250 to 1000 nM throughout.
As for `C=C1CN(c2ccc(-c3c(-c4ccc(Oc5nccc(C)n5)cc4)c4c(N)ncnc4n3C)cc2)C1=O` [Example 1109], the IC50 is under 100 nM in assay [1] and at most 100 nM in assay [2] (setting [3]).
In the case of `C=C(C)C(=O)Nc1ccc(-c2c(-c3ccc(C(=O)N[C@H]4C[C@@H](F)C4)c(OC(F)F)c3)c3c(N)ncnc3n2C)cc1` [Example 971], the IC50 in assay [1] and in assay [2] (setting [3]) was 250 to 1000 nM in each case.
Turning to `C=C(C)C(=O)Nc1ccc(-c2c(C3=CC[C@H](C(=O)N4CCCC4)CC3)c3c(N)ncnc3n2C)c(OC)c1` [Example 1480], the IC50 is 1000 to 100000 nM in assay [1] and 250 to 1000 nM in assay [2] (setting [3]).
The like results for `C#Cc1cc2cc(-c3c(-c4ccc(Oc5nccc(C)n5)c(F)c4)c4c(N)ncnc4n3C)ccc2cn1` [Example 1402] were, in that order, 1000 to 100000 nM and 1000 to 100000 nM.
Consider `C=CC(=O)N1CC(c2c(-c3ccc(Oc4cccc(C)n4)cc3)c3c(N)ncnc3n2C)C[C@H]1C` (some centres unmarked) [Example 847], for which the IC50 in assay [1] and in assay [2] (setting [3]) was 250 to 1000 nM in each case.
As for `C=CC(=O)N1CC(c2c(-c3ccc(Oc4cccc(C)n4)cc3)c3c(N)ncnc3n2C)C[C@@H]1CO` (some centres unmarked) [Example 819], the IC50 in assay [1] and in assay [2] (setting [3]) was 250 to 1000 nM throughout.
On to `COCC#Cc1cc(C)c(-c2c(-c3ccc(Oc4nccc(C)n4)c(F)c3)c3c(C)ncnc3n2C)cn1` [Example 1374], for which the IC50 is 250 to 1000 nM in assay [1] and 100 to 250 nM in assay [2] (setting [3]).
The like results for `C=CC(=O)Nc1ccc(-c2c(C3=CC[C@H](C(=O)N4CCCC4)CC3)c3c(C)ncnc3n2C)cc1` (single isomer, unassigned) [Example 1107] were, in that order, under 100 nM and at most 100 nM.
For the compound `C=CC(=O)N[C@H]1CC=C(c2c(-c3ccc(Oc4nccc(C)n4)c(F)c3)c3c(N)ncnc3n2C)CC1` [Example 1377], the IC50 in assay [1] and in assay [2] (setting [3]) was 250 to 1000 nM each time.
On to `COCC#Cc1cc(OC)c(-c2c(-c3ccc(Oc4nccc(C)n4)c(F)c3)c3c(C)ncnc3n2C)cn1` [Example 1430], for which the IC50 in assay [1] was under 100 nM; in assay [2] (setting [3]), at most 100 nM.
Take `C=C(C)C(=O)Nc1ccc(-c2c(-c3coc4ccccc34)c3c(N)ncnc3n2C)cc1` [Example 1273]: the IC50 in assay [1] and in assay [2] (setting [3]) was 1000 to 100000 nM each time.
For `C=C(C)C(=O)Nc1ccc(-c2c(C3=CC[C@H](C(=O)N4CCCC4)OC3)c3c(N)ncnc3n2C)cc1` [Example 1014], the IC50 in assay [1] was under 100 nM; in assay [2] (setting [3]), at most 100 nM.
Consider `[2H]C#Cc1cc(C)c(-c2c(-c3ccc(Oc4nccc(C)n4)c(F)c3)c3c(N)ncnc3n2C)cn1` [Example 1431], for which the IC50 in assay [1] was under 100 nM; in assay [2] (setting [3]), at most 100 nM.
For `C#Cc1cc(C)c(-c2c(-c3ccc(Oc4nc(C)cc(C)n4)c(F)c3)c3c(N)ncnc3n2C)cn1` [Example 1368], in that order: under 100 nM and at most 100 nM.
The like results for `C#Cc1cc(C)c(-c2c(-c3ccc(Oc4nccc(C)n4)c(F)c3)c3c(Cl)ncnc3n2C)cn1` [Example 1356] were, in that order, under 100 nM and at most 100 nM.
For the compound `C#Cc1ncc(-c2c(-c3ccc(Oc4nccc(C)n4)cc3)c3c(N)ncnc3n2C)cc1C#N` [Example 1188], the IC50 in assay [1] was under 100 nM; in assay [2] (setting [3]), at most 100 nM.
As for `C=C(C)C(=O)Nc1ccc(-c2c(-c3ccc(C(=O)N4CCCC4)cc3)c3c(N)n[nH]c(=O)c3n2C)cc1` [Example 879], the IC50 in assay [1] and in assay [2] (SNU-16 cells) was 1000 to 100000 nM in each case.
On to `C=CC(=O)Nc1ccc(-c2c(-c3ccc(Oc4nccc(C)n4)c(F)c3)c3c(N)ncnc3n2C)cc1` [Example 1112], for which the IC50 in assay [1] was under 100 nM; in assay [2] (setting [3]), at most 100 nM.
The like results for `C#Cc1cc(C)c(-c2c(-c3ncc(Oc4nccc(C)n4)cc3F)c3c(N)ncnc3n2C)c(C)n1` (atropisomer, axis not shown) [Example 1453] were, in that order, under 100 nM and at most 100 nM.
The like results for `C=CC(=O)Nc1ccc(-c2c(-c3ccc(Oc4nccc(C)n4)cc3)c3c(N)ncnc3n2C)c(C)c1` [Example 1092] were, in that order, under 100 nM and at most 100 nM.
Regarding `CC#Cc1ncc(-c2c(-c3ccc(Oc4nccc(C)n4)cc3)c3c(N)ncnc3n2C)cn1` [Example 1070], the values for the IC50 in assay [1] and in assay [2] (setting [3]) were under 100 nM and at most 100 nM, respectively.
`C=C(C)C(=O)Nc1ccc(-c2c(C3=CC[C@H](C(=O)N4CCCC4)C[C@@H]3C)c3c(N)ncnc3n2C)cc1` (single isomer, unassigned) [Example 939]: the half-maximal inhibitory concentration (IC50) in assay [1] and in assay [2] (setting [3]) was 1000 to 100000 nM in each case.
In the case of `C=Cc1ncc(-c2c(-c3ccc(Oc4nccc(C)n4)cc3)c3c(N)ncnc3n2C)cn1` [Example 877], the IC50 in assay [1] lay in the range of 100 to 250 nM; in assay [2] (setting [3]), 250 to 1000 nM.
The like results for `C=C(C)C(=O)Nc1ccc(-c2c(C3=CC[C@@H](S(=O)(=O)N4CCCC4)CC3)c3c(N)ncnc3n2C)c(C)c1` [Example 1115] were, in that order, 1000 to 100000 nM and 1000 to 100000 nM.
For `C#Cc1cc(C)c(-c2nn3c(c2-c2ccc(Oc4nccc(C)n4)c(F)c2)COCC3)cn1` [Example 1462], the IC50 in assay [1] and in assay [2] (setting [3]) was 1000 to 100000 nM throughout.
Take `C#Cc1ncc(-c2c(-c3ccc(C(=O)N4CCC[C@H]4C#C)cc3)c3c(N)ncnc3n2C)c(C)n1` [Example 1184]: the IC50 in assay [1] and in assay [2] (setting [3]) was 1000 to 100000 nM each time.
On to `C#Cc1cc2c(cn1)-c1c(-c3ccc(Oc4nccc(C)n4)c(F)c3)c3c(N)ncnc3n1C[C@H](C)O2` [Example 1455], for which the IC50 was under 100 nM in assay [1] and at most 100 nM in assay [2] (setting [3]).
